Results on 25 compounds are retold here after ChEMBL document CHEMBL4699537, “Chalcones as Modulators of Neutrophil Oxidative Burst under Physiological and High Glucose Conditions” (J Nat Prod, 2020).

The subject of data set [1] is Neutrophil. The data set is described as follows: Effect on cell viability in human neutrophils assessed as decrease in cell viability at 50 uM after 1 hr by Propidium staining based flow cytometric analysis.
A short description of data set [2]: Inhibition of PMA-induce ROS/RNS generation in human neutrophils measured up to 30 mins in presence of 5.5 mM glucose by luminol-amplified chemiluminescence method. The format is functional, tissue-based. As to conditions: Neutrophil, 0.5 h.
Data set [3] can be described thus: Inhibition of PMA-induce ROS/RNS generation in human neutrophils measured up to 30 mins in presence of 30 mM glucose by luminol-amplified chemiluminescence method. The format is functional, tissue-based. As to conditions: Neutrophil, 0.5 h.
A short description of data set [4]: Ratio of IC50 for inhibition of PMA-induce ROS/RNS generation in human neutrophils measured up to 30 mins in presence of 30 mM glucose to IC50 for inhibition of PMA-induce ROS/RNS generation in human neutrophils measured up to 30 mins in presence of 5.5 mM glucose. The format is functional, Neutrophil.
For data set [5], the system named is Neutrophil. As to the kind of experiment: Effect on cell viability in human neutrophils assessed as decrease in cell viability at 100 uM after 1 hr by Propidium staining based flow cytometric analysis. For orientation: Flow cytometry measures light scatter and fluorescence of single cells or particles in a stream.
Data set [6] relates to Neutrophil. The data set is described as follows: Effect on cell viability in human neutrophils assessed as decrease in cell viability at 3.1 uM after 1 hr by Propidium staining based flow cytometric analysis.
A short description of data set [7]: Inhibition of PMA-induce ROS/RNS generation in human neutrophils at 3.1 uM measured up to 30 mins in presence of 5.5 mM glucose by luminol-amplified chemiluminescence method relative to control. Type of data set: functional, Neutrophil. Particulars: time min <=30.
A short description of data set [8]: Inhibition of PMA-induce ROS/RNS generation in human neutrophils at 3.1 uM measured up to 30 mins in presence of 30 mM glucose by luminol-amplified chemiluminescence method relative to control. The format is functional, Neutrophil. Particulars: time min <=30.
Data set [9] can be described thus: Inhibition of PMA-induce ROS/RNS generation in human neutrophils at 6.3 uM measured up to 30 mins in presence of 5.5 mM glucose by luminol-amplified chemiluminescence method relative to control. The format is functional, Neutrophil. Particulars: time min <=30.
Data set [10] concerns Neutrophil. The data set is described as follows: Effect on cell viability in human neutrophils assessed as decrease in cell viability at 12.5 uM after 1 hr by Propidium staining based flow cytometric analysis.
Data set [11] can be described thus: Inhibition of PMA-induce ROS/RNS generation in human neutrophils at 12.5 uM measured up to 30 mins in presence of 5.5 mM glucose by luminol-amplified chemiluminescence method relative to control. Type of data set: functional, Neutrophil. Particulars: time min <=30.
Data set [12] is described as follows: Inhibition of PMA-induce ROS/RNS generation in human neutrophils at 12.5 uM measured up to 30 mins in presence of 30 mM glucose by luminol-amplified chemiluminescence method relative to control. As to conditions: time min <=30. Type of data set: functional, Neutrophil.
For data set [13], the system named is Neutrophil. As to the kind of experiment: Effect on cell viability in human neutrophils assessed as death cell at 6.3 uM in presence of 5.5 mM glucose after 1 hr by Propidium staining based flow cytometric analysis (reference value: 0.5 +/- 0.07 %).
Data set [14] concerns Neutrophil. The data set is described as follows: Effect on cell viability in human neutrophils assessed as death cell at 6.3 uM in presence of 30 mM glucose after 1 hr by Propidium staining based flow cytometric analysis (reference value: 0.8 +/- 0.13 %).
Data set [15] deals with Neutrophil. The data set is described as follows: Effect on cell viability in human neutrophils assessed as decrease in cell viability at 6.3 uM after 1 hr by Propidium staining based flow cytometric analysis.
The subject of data set [16] is Neutrophil. As to the kind of experiment: Effect on cell viability in human neutrophils assessed as decrease in cell viability at 25 uM after 1 hr by Propidium staining based flow cytometric analysis.
Data set [17] can be described thus: Inhibition of PMA-induce ROS/RNS generation in human neutrophils at 6.3 uM measured up to 30 mins in presence of 30 mM glucose by luminol-amplified chemiluminescence method relative to control. The format is functional, Neutrophil. As to conditions: time min <=30.
Data set [18] can be described thus: Inhibition of PMA-induce ROS/RNS generation in human neutrophils at 25 uM measured up to 30 mins in presence of 5.5 mM glucose by luminol-amplified chemiluminescence method relative to control. The format is functional, Neutrophil. As to conditions: time min <=30.
Data set [19] can be described thus: Inhibition of PMA-induce ROS/RNS generation in human neutrophils at 25 uM measured up to 30 mins in presence of 30 mM glucose by luminol-amplified chemiluminescence method relative to control. Type of data set: functional, Neutrophil. As to conditions: time min <=30.
Data set [20] is described as follows: Inhibition of PMA-induce NET production in human neutrophils at 50 uM incubated for 30 mins in presence of 30 mM glucose by SytoxGreen staining based fluorescence assay relative to control. The format is functional. Particulars: Neutrophil, 0.5 h.
The subject of data set [21] is Neutrophil. The data set is described as follows: Inhibition of PMA-induce NET production in human neutrophils incubated for 30 mins in presence of 30 mM glucose by SytoxGreen staining based fluorescence assay. The format is functional, tissue-based.
In data set [22] the test system is Neutrophil. As to the kind of experiment: Effect on cell viability in human neutrophils assessed as death cell at 100 uM in presence of 5.5 mM glucose after 1 hr by Propidium staining based flow cytometric analysis (reference value: 0.5 +/- 0.07 %).
Data set [23] has as its system Neutrophil. The data set is described as follows: Effect on cell viability in human neutrophils assessed as death cell at 100 uM in presence of 30 mM glucose after 1 hr by Propidium staining based flow cytometric analysis (reference value: 0.8 +/- 0.13 %).

Turning to `COc1ccc(/C=C/C(=O)c2ccccc2O)cc1OC`, in data set [1], the Activity result was “Non-Toxic”. The IC50 (in general, the concentration that gives 50% inhibition) stood at 6.4 µM in data set [2] and 15 µM in data set [3]. Further, the “Ratio IC50” value in data set [4] is 2.
As to `COc1ccc(/C=C/C(=O)c2ccccc2)cc1OC`, in [5], the Activity result was “Non-Toxic”. Further, the IC50 was 15 µM in [2] and 20 µM in data set [3].
For the compound `O=C(/C=C/c1ccc(O)cc1)c1ccccc1O`, the Activity result in data set [1] is recorded as “Non-Toxic”. Besides, the results for the IC50 in data set [2] and in [3] were 1.6 µM and 1.5 µM, respectively.
Taken in the same sequence, the figures for `O=C(/C=C/c1ccc(O)cc1)c1ccccc1` [4-HYDROXYCHALCONE] were “Non-Toxic”, 8.8 µM and 11.6 µM.
In the case of `COc1ccc(/C=C/C(=O)c2c(O)cc(OC)cc2OC)cc1` [FLAVOKAWAIN A], the Activity entry in data set [6] is recorded as “Non-Toxic”. For the same compound, the Imax in data set [7] came to 13%; in data set [8], 19%.
With `Cc1cc(C)c(/C=C/C(=O)c2ccccc2O)c(C)c1`, the Activity entry in data set [6] is given as “Non-Toxic”. Besides, the values for the Imax in data set [9] and in data set [8] were 26% and 25%, respectively.
Take `O=C(/C=C/c1ccc(Cl)cc1Cl)c1ccccc1O`: the Activity entry in [10] is on record as “Non-Toxic”. Further, the Imax in [11] is given as 30%; in [12] it was 28%.
Regarding `O=C(/C=C/c1ccc(O)cc1O)c1ccc(O)cc1O`, the Activity entry in data set [10] was “Non-Toxic”. Moreover, the IC50 in data set [2] was 2.9 µM; in data set [3], 3 µM.
Take `COc1cc(/C=C/C(=O)c2ccccc2O)cc(OC)c1OC`: the Activity result in data set [1] is given as “Non-Toxic”. Also, the IC50 in data set [2] was determined as 3.4 µM; in data set [3], 3 µM.
Consider `COc1cc(O)c(C(=O)/C=C/c2cc(OC)c(OC)c(OC)c2)c(OC)c1`, for which the Activity entry in data set [6] is “Non-Toxic”. Besides, the Imax was 25% in [9] and 18% in data set [8].
With `COc1cc(/C=C/C(=O)c2ccccc2O)ccc1O`, the results for the Activity in data set [13], in data set [14] and in data set [15] were 0.4%, 0.4% and “Non-Toxic”, respectively. Further, the concentration for half-maximal inhibition (IC50) in data set [2] was 1 µM; in data set [3] it was 2 µM.
`O=C(/C=C/c1ccc(O)cc1O)c1ccccc1`: the Activity entry in [16] is reported as “Non-Toxic”. For the same compound, the concentration for half-maximal inhibition (IC50) in data set [2] worked out at 13 µM; in data set [3], 12 µM.
As for `COc1ccccc1/C=C/C(=O)c1ccccc1O`, the Activity result in data set [15] is “Non-Toxic”. Besides, the values for the Imax in data set [9] and in data set [17] were 50% and 34%, respectively.
Take `O=C(/C=C/c1ccccc1O)c1ccccc1`: the Activity entry in data set [1] is given as “Non-Toxic”. Besides, the IC50 was determined as 6.7 µM in data set [2] and 5 µM in data set [3].
With `O=C(/C=C/c1ccccc1O)c1ccccc1O`, the Activity result in data set [16] was “Non-Toxic”. The concentration for half-maximal inhibition (IC50) in data set [2] and in [3] was 5.8 µM throughout.
With `COc1ccc(/C=C/C(=O)c2ccc(O)cc2O)cc1OC`, in data set [10], the Activity result was “Non-Toxic”. For the same compound, the half-inhibitory concentration (IC50) worked out at 6.4 µM in data set [2] and 7 µM in [3].
Regarding `COc1ccc(/C=C/C(=O)c2ccccc2O)cc1`, the Activity result in data set [16] is “Non-Toxic”. Also, the Imax turned out to be 50% in [18] and 32% in data set [19].
Take `COc1cc(O)c(C(=O)/C=C/c2ccc(OC)c(OC)c2)c(OC)c1`: the Activity result in [5] is “Non-Toxic”. In addition, the concentration for half-maximal inhibition (IC50) in data set [2] came to 78 µM; in data set [3], 74 µM.
Consider `COc1ccc(/C=C/C(=O)c2ccc(O)cc2O)cc1`, for which, in data set [10], the Activity result was “Non-Toxic”. Moreover, the Imax in [11] is listed as 46%; in [12], 44%.
For `O=C(/C=C/c1ccc(O)c(O)c1)c1c(O)cc(O)cc1O` [3,4,2',4',6'-PENTAHYDROXYCHALCONE], in data set [1], the Activity entry is reported as “Non-Toxic”. For the same compound, the IC50 in data set [2] amounted to 4.4 µM; in [3], 5 µM. Besides, in data set [20], the inhibition – broadly, the percentage by which the read-out fell short of the control – at 50 µM was found to be 48%. Moreover, the inhibition entry in [21] was “Dose-dependent effect”.
Consider `O=C(/C=C/c1ccccc1)c1ccccc1` [CHALCONE], for which the Activity in data set [22] was 0.6%; in data set [23] it was 5%; in data set [1], “Non-Toxic”. Further, the IC50 in data set [2] stood at 13 µM; in [3], 27 µM. For the same compound, the “Ratio IC50” value in [4] was found to be 2.
As to `O=C(/C=C/c1cccc(O)c1)c1ccccc1` [3-HYDROXY CHALCONE], the Activity entry in data set [5] is on record as “Non-Toxic”. Further, the IC50 in [2] is 27 µM; in data set [3], 22.3 µM.
`COc1cccc(/C=C/C(=O)c2ccccc2O)c1`: the Activity result in data set [16] is on record as “Non-Toxic”. Besides, the IC50 in data set [2] worked out at 3 µM; in [3], 5.7 µM. Besides, the “Ratio IC50” value in [4] is reported as 2.
With `Cc1cccc(/C=C/C(=O)c2ccccc2O)c1`, in [10], the Activity entry is “Non-Toxic”. Further, the IC50 in [2] is 2.8 µM. In data set [12], the Imax amounted to 47%. Moreover, the “Ratio IC50” value in data set [4] amounted to 2.
In the case of `O=C(/C=C/c1ccc(Cl)cc1)c1ccccc1` [4-CHLORO CHALCONE], the Activity result in data set [10] was “Non-Toxic”. Moreover, the half-inhibitory concentration (IC50) in data set [2] was 5.4 µM; in data set [3] it was 5.3 µM.
